SMILES strings stand for the structures. Residues, ends and D or L forms follow the SMILES beside them. *: point of attachment. Bz = O=C(c1ccccc1)*

`COc1cc(OCc2cccnc2)ccc1/C=C/c1cc(/C=C/c2cccc3[nH]ccc23)n[nH]1`: the melting point fell in the range of 109 to 114 °C.
Next, `O=c1[nH]cnc2nn(C3CCCCC3)cc12`: 287 to 289 °C; `Cc1ccc(N2CCOCC2)c(N=C2NCCN2CCO)c1`: 135 to 136 °C; `CCOC(=O)C(=O)N(c1ccccc1N)C(C)(C)C`: 64 to 65 °C.
Then `CCC(=O)C(=Cc1ccc(C#N)cc1)C(=O)CC`, with 59 to 60 °C.
Then `O=c1c2c([nH]c3nc(NCc4ccccc4)nn13)CCCS2`, with 332 to 335 °C.
The molecule `CN1CCN(CCn2c3ccccc3c(=O)c3ccccc32)CC1` returned a melting point of 156 to 157 °C.
Next, `N#Cc1ccc2[nH]cc(CCNC(=O)OCc3ccccc3)c2c1`: 128 to 129 °C.
Then `COc1cc(N)c(SC)cc1OC`, with 72 to 74 °C; and `Cc1cccc(NC(=O)NCC(=O)N(c2ccccc2)C(C(=O)OC(C)(C)C)c2ccc(N)cc2)c1` (racemic), with 108 °C; and `CCOC(=O)Nc1ccccc1SCc1ncon1`, with 55 °C.
Then `Cc1nc(-c2ccccc2)nc(-c2cccc([N+](=O)[O-])c2)c1CN1CCN(C)CC1`, with 138 to 140 °C.
As to `Cc1cnc(-c2ccc3c(c2)c2cc(-c4ccc(Cl)cc4Cl)c(=O)n(C)c2n3C)o1`, the melting point was in the range of 289 to 292 °C.
Next, `CCOC(=S)c1ccc2scc(C)c2c1`: 67 to 69 °C.
Next, `O=C(OC(c1ccccc1)c1ccccc1)C(O)Cc1ccc(F)cc1` (stereo not drawn): 52 to 54 °C; `COc1ccc(C(=O)C2=C(O)C(=O)N(C3OCCO3)C2c2ccccc2)cc1` (stereo not drawn): 216 to 219 °C.
Then `CC(C)(C)OC(=O)N[C@@H](Cc1ccccc1)[C@@H](O)C[C@@H](Cc1ccccc1)c1ncn[nH]1`, with 187 to 188 °C.
`CCCCCCCCCCNC(=O)c1cc(NCC(=O)O)cc(C(=O)NCCCCCCCCCC)c1` displayed a melting point of 172 to 173 °C.
`CC(C)(O)Cn1c(CO)nc2c(N)nc3cc(OCc4cscn4)ccc3c21` registered a melting point of 260 to 262 °C.
Take `O=c1[nH]c(=O)n2c3c(cccc13)Sc1ccc(C(F)(F)F)cc1-2`: the melting point was in the range of 278 to 280 °C.
Then `CC(C1=NC(C)(C)CO1)c1ccc(-c2ccc(F)cc2F)c(O)c1` (stereo not drawn), with 188 to 194 °C; and `C#Cc1cc(Cc2cnc(N)nc2N)cc(OC)c1OC`, with 173 to 175 °C.
Next, `CCC(=O)c1ccc(OC)c(O)c1`: 91 to 92 °C; `CCCOc1cc(CCC(=O)O)ccc1OCCCc1cn(-c2ccc(C(F)(F)F)cn2)nc1OCC`: 106 to 107 °C.
The molecule `CCCCOCCOc1ccc(-c2ccc3c(c2)C=C(C(=O)Nc2ccc([C@H](O)c4ccccn4)cc2)CCN3C(=O)C(F)(F)F)cc1` came in with a melting point of 100 to 102 °C.
Next, `COc1ccc2c(-c3ccccc3)c(C(=O)c3ccccc3)sc2c1`: 94 to 95.5 °C.
`Cc1ccc2c(c1)C1CN(CCCC(=O)c3ccc(F)cc3)CCC1N2` (stereo not drawn) registered a melting point of 154 to 158 °C.
Next, `CCCCn1c(=O)c2c(NC)n[nH]c2n(CCNCc2ccccc2)c1=O`: 198 to 200 °C; `CCCNC(=O)N(C)Cc1cccc2c1CN(C1CCC(=O)NC1=O)C2=O` (stereo not drawn): 220 to 222 °C; `CC(=O)NCC1CN(c2ccc(N3CCN(C(=O)COC(C)=O)CC3)c(F)c2)C(=O)O1` (stereo not drawn): 199 to 201 °C.
Next, `CCOC(=O)NC(=O)C1c2ccccc2Oc2c1cccc2C(F)(F)F` (stereo not drawn): 196 to 198 °C; `CCCOc1nc2cccc(C(=O)OCC)c2n1Cc1ccc(-c2ccccc2C#N)cc1`: 90 to 92 °C; `CC1(C)CCn2c(nc(-c3ccncc3)cc2=O)N1`: 345 to 347 °C.
Then `Nc1ccc(F)c(C(=O)NCC(=O)O)c1`, with 252 to 254 °C; and `O=C(O)c1ccc2c(c1)CCc1ccc(O)cc1C2=O`, with 256 to 257 °C.
`O=S1(=O)NC(c2cccc(F)c2)c2ccccc21` (single isomer, unassigned; (+)) had a melting point of 148 °C.
Next, `N#CC(c1ccccc1)(c1ccccc1)C1CCN(C(=O)Oc2ccccc2)C1` (stereo not drawn): 154 to 155 °C.
Then `CN(C)c1ncc(C(=O)NCc2ccccc2)c(S)n1`, with 175 to 178 °C; and `O=C(c1nc(-c2ccccc2)nc2ccccc12)N1CCOCC1`, with 148 °C; and `Cc1cc(C(=O)N(C2CCCCC2)C2CCCC2)ccc1Cn1cnc2ncccc21`, with 191 to 192 °C.
Then `COC(=O)C1=C(C)NC(C#N)=C(C(=O)OC)C1c1ccccc1[N+](=O)[O-]` (stereo not drawn), with 170 to 172 °C.
For `CC1(C)Cc2nc3ccccc3n2C(=O)N1`, the melting point fell in the range of 205 to 210 °C.
Then `O=c1c(-c2ccc[nH]2)coc2ccccc12`, with 134 to 135 °C.
`CSc1c(C=NO)c(=O)n(C)c(=O)n1C` yielded a melting point of 165 °C.
Then `CCCCCCCCc1ccc(-c2ncc(OCC(C)OC(=O)CCCCCC)cn2)cc1` (stereo not drawn), with 33 to 34.3 °C; and `CSC1=N/C(=C\c2c[nH]c3ncc(Cl)cc23)C(=O)N1`, with > 410 °C.
Then `CCCCCCCCC(Br)C(=O)Nc1c(OC)cc(OC)cc1OC` (stereo not drawn), with 109 to 110 °C; and `CCOC(Cc1ccc(NCCCC2=CCC(NS(C)(=O)=O)(OC(C)(C)C)C=C2)cc1)C(=O)O` (stereo not drawn), with 78 to 80 °C; and `OC(Cc1ccc(Cl)cc1)(Cn1ccnc1)c1ccc2c(c1)Cc1cc(Cl)ccc1-2` (stereo not drawn), with 218 °C.
Next, `CCN1CCN(CC)c2cc(N)ccc2C1=O`: 140 to 141 °C; `CCOC(=O)NC(CCc1ccccc1)P(=O)(CC(=O)O)OCc1ccccc1` (stereo not drawn): 151 to 153 °C.
The molecule `NC(=S)Nc1ncccn1` showed a melting point of 262 to 264 °C.
For `O=[N+]([O-])c1cccnc1N1CCc2ccccc2CC1`, the melting point lay in the range of 129 to 136 °C.
Consider `Fc1ccc(C(=C(c2ccccc2)c2ccc(OCCBr)cc2)C(F)(F)F)cc1`, for which the melting point lay within 115 to 118 °C.
Next, `NC(=O)c1cccc(OCc2ccc(Br)cc2)c1`: 160 to 161 °C.
Next, `Cn1ncc(N(CCCO)Cc2ccccc2)c(Cl)c1=O`: 94 to 95 °C; `NS(=O)(=O)c1cc(C(=O)OCC(=O)N2CCC[C@@H]2CO[N+](=O)[O-])c(NCc2ccco2)cc1Cl`: 64 to 66 °C.
Next, `CCOC(=O)COc1c(OC2CCCCO2)cccc1[N+](=O)[O-]` (stereo not drawn): 49 to 50 °C; `c1ccc2cc(N3CCC4(CCNCC4)CC3)ccc2c1`: 158 to 162 °C; `COc1cc(OC)nc(C2(C#N)OC(=O)c3c(-c4cccs4)ccnc32)n1` (stereo not drawn): 187 to 188 °C.
As for `COC(=O)NC(CCSC)C(N)=O` (racemic), the melting point was 93 to 94 °C.
With `CCCn1c(COCC)nc2c(N)nc3cc(OCCN4CCOCC4)ccc3c21`, the melting point lay in the range of 191 to 192 °C.
Turning to `O=C(N[C@H](Cc1cccc(C(F)(F)F)c1)[C@@H](O)c1ccc(F)cc1)c1cccc2ccccc12` (racemic), the melting point fell in the range of 158 to 159 °C.
Then `COc1ccc(-c2nc3cnccc3[nH]2)c(OCCCCl)c1`, with 174 to 176 °C.
Next, `Cn1ncc2c(=O)n3c(nc21)SC(c1ccccc1)C3` (stereo not drawn): 191 °C; `CC(=O)OC1CC2=CCC3C4CCC(C(C)CCCC(C)C)C4(C)CCC3C2(C)C(O)C1O` (stereo not drawn): 131 to 133 °C.
`COc1cccc2c1C(=CC(=O)c1ccccc1)OC2=O` had a melting point of 165 °C.
Next, `COc1cc(CCCC2OC(=O)NC2=O)cc(OC)c1O` (stereo not drawn): 155 to 156 °C.
Turning to `CCOC(=O)Cn1c(-c2ccc(C(F)(F)F)cc2)nc2cccnc21`, the melting point lay in the range of 147 to 148 °C.
Then `CC(NC(=O)Cc1cc(F)cc(F)c1)C(=O)C1(N)N=C(c2ccccc2F)c2ccccc2N(C)C1=O` (stereo not drawn), with 185 to 188 °C; and `COc1ccc(C(NC(=O)c2ccc(F)cc2)c2cccc(Nc3c(OC)c(=O)c3=O)c2)cc1` (stereo not drawn), with 115 to 116 °C; and `COC(=O)C(Cc1ccc(O)cc1)NC(=O)C(Cc1ccccc1)NC(=O)c1ccccc1` (stereo not drawn) (Bz-Phe-Tyr-OMe; configuration not given here), with 188 to 190 °C.
On to `CC(C)c1nn2ccccc2c1C(=O)C1CCCC1`, for which the melting point was in the range of 106 to 110 °C.
Take `O=C(O)c1cn(C2CC2)c2c(C(F)(F)F)c(F)c(F)cc2c1=O`: the melting point lay in the range of 159 to 162 °C.
Next, `Cc1nc(-c2ccccc2)nc(-c2cccc([N+](=O)[O-])c2)c1CC#N`: 219 to 221 °C; `COC(=O)[C@@H]1Cc2cc(Cl)c(Cl)cc2[C@@H](NC(N)=O)C1` (relative stereo): 227 to 229 °C.
In turn, `COC(=O)CCCc1cc2nc(C(F)(F)F)ccc2n1S(=O)(=O)c1ccccc1` came in with a melting point of 95 °C.
Then `CC(C)(C)c1ccc(/C=C/C(=O)Nc2ccc3ncoc3c2)cc1`, with 147 to 148 °C; and `CCCOc1ccc(S(=O)(=O)C(C)C)cc1C(N)=O`, with 177 to 178 °C; and `C[C@]1(CN2CCN(Nc3ccc(C(F)(F)F)cc3)CC2)Cn2cc([N+](=O)[O-])nc2O1`, with 192 to 195 °C.
Then `COc1ccc(Nc2nn3c(-c4ccc(OC)cc4)nnc3c3ccccc23)cc1`, with 301 to 304 °C; and `O=S1(=O)c2cccc3cccc(c23)N1CCN1CCC(Cc2cnc3ccccc3c2)CC1`, with 150 °C; and `CC(C)(C)OC(=O)Oc1ccc(C(=O)OCc2ccccc2)cc1`, with 81 °C.
`CC(C)C(=O)Nc1ccc2ncn3c(=O)c(C(=O)O)cnc3c2c1` registered a melting point of 312 to 314 °C.
Next, `CCNc1cc(C)nc(Oc2c(C)cc(C)cc2C)c1C`: 115 to 116 °C; `O=C(O)c1snc(-c2cc(C(F)(F)F)cc(C(F)(F)F)c2)c1C(=O)O`: 193 to 194 °C.
Next, `CCCCOc1ccc(Nc2cc(Nc3ccc4c(c3)OCCO4)c(F)cn2)cc1`: 133 to 135 °C; `COc1cc(C)nc(NC(=O)NS(=O)(=O)c2ccccc2CCC(F)(F)F)n1`: 174 to 175 °C.

(Values after a melting point compilation (Tetko et al.; mined from patent text by program, amines drawn as free bases though some values may be those of a salt).)
